These results are taken from US20180155344A1, “TRICYCLIC PIPERIDINE COMPOUNDS” (ACTELION PHARMACEUTICALS LTD, priority 2015, published 2018).

By IC50 is commonly meant the concentration at which inhibition is half-maximal. Low readings indicate higher potency, high ones lower potency.

In the first assay the target is T1, human TPH1 (Homo sapiens, UniProt P17752).
T1 sequence (P17752 1-444): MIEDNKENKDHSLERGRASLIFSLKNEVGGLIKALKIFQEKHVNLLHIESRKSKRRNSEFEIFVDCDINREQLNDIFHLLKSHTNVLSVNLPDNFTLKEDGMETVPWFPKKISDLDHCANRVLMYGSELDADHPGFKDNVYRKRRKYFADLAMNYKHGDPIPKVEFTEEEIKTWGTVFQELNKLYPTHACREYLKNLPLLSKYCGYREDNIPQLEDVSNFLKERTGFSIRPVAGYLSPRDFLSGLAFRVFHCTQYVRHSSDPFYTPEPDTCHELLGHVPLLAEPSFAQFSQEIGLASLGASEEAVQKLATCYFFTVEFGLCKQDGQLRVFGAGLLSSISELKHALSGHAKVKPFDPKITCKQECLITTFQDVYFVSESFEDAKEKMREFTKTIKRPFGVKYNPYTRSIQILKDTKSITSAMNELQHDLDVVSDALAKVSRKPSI
Briefly: biochemical.
Details: not given
In short, it runs like this:
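Inhibition is derived from 5-hydroxy-L-tryptophan fluorescence (540 nm emission, 300 nm excitation) after perchloric acid stop, relative to DMSO vehicle. Recombinant full-length human enzyme (40-80 nM) reacts with 40 μM tryptophan plus 100 μM methyltetrahydropterin, pH 7.6 Tris/DTT/catalase, 15° C, 60 min.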
Molecule `CS(=O)(=O)Nc1ccc(OCC(=O)N2CCc3nc4ccc(F)cn4c3C2c2ccc(Cl)cc2F)c(Cl)n1` (stereo not shown) [Example 11.2.1, N-(6-chloro-5-(2-(1-(4-chloro-2-fluorophenyl)-8-fluoro-3,4-dihydroimidazo[1,2-a:5,4-c′]dipyridin-2(1H)-yl)-2-oxoethoxy)pyridin-2-yl)methanesulfonamide] gave an IC50 of 72 nM. This counts as double-digit nanomolar. In turn, `Cc1csc(C2c3c(nc4cc(C(F)(F)F)ccn34)CCN2C(=O)COc2ccc3ccccc3c2)n1` (stereo not shown) [Example 3.42.1, 1-(1-(4-methylthiazol-2-yl)-7-(trifluoromethyl)-3,4-dihydroimidazo[1,2-a:5,4-c′]dipyridin-2(1H)-yl)-2-(naphthalen-2-yloxy)ethan-1-one] yielded an IC50 of 260 nM.

On to `CCc1nc(C)ccc1OCC(=O)N1CCc2nc3ccccn3c2C1c1ccc(Cl)cc1F` (stereo not shown) [Example 1.4.6, 1-(1-(4-chloro-2-fluorophenyl)-3,4-dihydroimidazo[1,2-a:5,4-c′]dipyridin-2(1H)-yl)-2-((2-ethyl-6-methylpyridin-3-yl)oxy)ethan-1-one], for which the IC50 came out at 78 nM. Molecule `COc1cc(C)c(C2c3c(nc4cc(C(F)(F)F)ccn34)CCN2C(=O)COc2ccc(CN3CCOCC3)cc2Cl)cn1` (stereo not shown) [Example 3.39.1, 2-(2-chloro-4-(morpholinomethyl)phenoxy)-1-(1-(6-methoxy-4-methylpyridin-3-yl)-7-(trifluoromethyl)-3,4-dihydroimidazo[1,2-a:5,4-c′]dipyridin-2(1H)-yl)ethan-1-one] returned an IC50 of 46 nM. Same read-out and setting: the result for `CN(C)C(=O)c1ccc(OC2(C(=O)N3CCc4nc5ccccn5c4C3c3ccc(Cl)cc3F)CC2)c(Cl)n1` (stereo not shown) [Example 1.4.15, 6-chloro-5-(1-(1-(4-chloro-2-fluorophenyl)-1,2,3,4-tetrahydroimidazo[1,2-a:5,4-c′]dipyridine-2-carbonyl)cyclopropoxy)-N,N-dimethylpicolinamide] reads 323 nM. In turn, `COC(=O)COc1cc(C2c3c(nc4cc(Cl)ccn34)CCN2C(=O)COc2ccc(CN3CCOCC3)cc2Cl)ccc1OC` (stereo not shown) [Example 2.14.1, Methyl 2-(5-(7-chloro-2-(2-(2-chloro-4-(morpholinomethyl)phenoxy)acetyl)-1,2,3,4-tetrahydroimidazo[1,2-a:5,4-c′]dipyridin-1-yl)-2-methoxyphenoxy)acetate] displayed an IC50 of 88 nM. Molecule `O=C(COc1ccc(CN2CCOCC2)cc1Cl)N1CCc2nc3ccccn3c2C1c1cccnc1F` (stereo not shown) [Example 1.2.1, 2-(2-chloro-4-(morpholinomethyl)phenoxy)-1-(1-(2-fluoropyridin-3-yl)-3,4-dihydroimidazo[1,2-a:5,4-c′]dipyridin-2(1H)-yl)ethan-1-one] yielded an IC50 of 209 nM. In turn, `COc1ccc(C2c3c(nc4cc(Cl)ccn34)CCN2C(=O)COc2ccc(CN3CCOCC3)cc2Cl)cc1OC` (stereo not shown) [Example 2.1.2, 1-(7-chloro-1-(3,4-dimethoxyphenyl)-3,4-dihydroimidazo[1,2-a:5,4-c′]dipyridin-2(1H)-yl)-2-(2-chloro-4-(morpholinomethyl)phenoxy)ethan-1-one] came in with an IC50 of 66 nM. In turn, `CS(=O)(=O)Nc1ccc(OCC(=O)N2CCc3nc4cnccn4c3C2c2ccc(Cl)cc2F)c(Cl)n1` (stereo not shown) [Example 17.2.1, N-(6-chloro-5-(2-(1-(4-chloro-2-fluorophenyl)-3,4-dihydropyrido[4′,3′:4,5]imidazo[1,2-a]pyrazin-2(1H)-yl)-2-oxoethoxy)pyridin-2-yl)methanesulfonamide] gave an IC50 of 214 nM. This IC50 lies about 3.2-fold higher than the previous one. Regarding `COc1ccc(C2c3c(nc4cc(C(F)(F)F)ccn34)CCN2C(=O)COc2cccnc2C2CC2)cc1OC` (stereo not shown) [Example 3.1.35], the IC50 came to 336 nM. Same read-out and setting: as for `O=C(COc1ccc(CN2CCOCC2)cc1Cl)N1CCc2nc3cc(C(F)(F)F)ccn3c2C1c1ccc(Cl)nc1` (stereo not shown) [Example 3.37.1, 2-(2-chloro-4-(morpholinomethyl)phenoxy)-1-(1-(6-chloropyridin-3-yl)-7-(trifluoromethyl)-3,4-dihydroimidazo[1,2-a:5,4-c′]dipyridin-2(1H)-yl)ethan-1-one], the figure is 50 nM. Take `COCCOc1ccc(C2c3c(nc4ccccn34)CCN2C(=O)COc2ccc(C(=O)NC3CC3)nc2Cl)c(F)c1` (stereo not shown) [Example 1.21.1, 6-chloro-N-cyclopropyl-5-(2-(1-(2-fluoro-4-(2-methoxyethoxy)phenyl)-3,4-dihydroimidazo[1,2-a:5,4-c′]dipyridin-2(1H)-yl)-2-oxoethoxy)picolinamide]: the IC50 was 54 nM. The molecule `COc1ccc(C2c3c(nc4cc(C(F)(F)F)ccn34)CCN2C(=O)COc2ccc3ccccc3c2)cn1` (stereo not shown) [Example 3.6.1, 1-(1-(6-methoxypyridin-3-yl)-7-(trifluoromethyl)-3,4-dihydroimidazo[1,2-a:5,4-c′]dipyridin-2(1H)-yl)-2-(naphthalen-2-yloxy)ethan-1-one] yielded an IC50 of 52 nM. In the case of `O=C(COc1ccc(N2CCOCC2)nc1Cl)N1CCc2nc3cnccn3c2C1c1ccc(C2CC2)cc1F` (stereo not shown) [Example 17.1.1, 2-((2-chloro-6-morpholinopyridin-3-yl)oxy)-1-(1-(4-cyclopropyl-2-fluorophenyl)-3,4-dihydropyrido[4′,3′:4,5]imidazo[1,2-a]pyrazin-2(1H)-yl)ethan-1-one], it took 29 nM to reach half-maximal inhibition (IC50).

The molecule `COc1ccc(C2c3c(nc4cc(C(F)(F)F)ccn34)CCN2C(=O)COc2cnc3ccccc3c2)cc1OC` (stereo not shown) [Example 3.1.22] gave an IC50 of 165 nM. Still for that read-out and setting: as for `COc1ccc(C2c3c(nc4cc(C(F)(F)F)ccn34)CCN2C(=O)COc2ccc3ccccc3c2)cc1OC(F)(F)F` (stereo not shown) [Example 3.13.1, 1-(1-(4-methoxy-3-(trifluoromethoxy)phenyl)-7-(trifluoromethyl)-3,4-dihydroimidazo[1,2-a:5,4-c′]dipyridin-2(1H)-yl)-2-(naphthalen-2-yloxy)ethan-1-one], the figure is 75 nM.

Molecule `CCOc1ccc(C2c3c(nc4cc(C(F)(F)F)ccn34)CCN2C(=O)COc2ccc(CN3CCOCC3)cc2Cl)cc1` (stereo not shown) [Example 3.25.2, 2-(2-chloro-4-(morpholinomethyl)phenoxy)-1-(1-(4-ethoxyphenyl)-7-(trifluoromethyl)-3,4-dihydroimidazo[1,2-a:5,4-c′]dipyridin-2(1H)-yl)ethan-1-one] gave an IC50 of 20 nM.

With `O=C(COc1ccc2ccccc2c1)N1CCc2nc3cc(C(F)(F)F)ccn3c2C1c1ncccc1F` (stereo not shown) [Example 3.21.1, 1-(1-(3-fluoropyridin-2-yl)-7-(trifluoromethyl)-3,4-dihydroimidazo[1,2-a:5,4-c′]dipyridin-2(1H)-yl)-2-(naphthalen-2-yloxy)ethan-1-one], the IC50 stood at 69 nM.

`O=C(COc1ccc(CN2CCOCC2)cc1Cl)N1CCc2nc3cc(C(F)(F)F)ccn3c2C1c1cc2cccnc2s1` (stereo not shown) [Example 3.49.2, 2-(2-chloro-4-(morpholinomethyl)phenoxy)-1-(1-(thieno[2,3-b]pyridin-2-yl)-7-(trifluoromethyl)-3,4-dihydroimidazo[1,2-a:5,4-c′]dipyridin-2(1H)-yl)ethan-1-one]: the IC50 was 13 nM. This IC50 lies about 5.3-fold lower than the previous one.

Turning to `COc1cc(C2c3c(nc4cc(C(F)(F)F)ccn34)CCN2C(=O)COc2ccc3ccccc3c2)cnc1OC` (stereo not shown) [Example 3.19.1, 1-(1-(5,6-dimethoxypyridin-3-yl)-7-(trifluoromethyl)-3,4-dihydroimidazo[1,2-a:5,4-c′]dipyridin-2(1H)-yl)-2-(naphthalen-2-yloxy)ethan-1-one], the IC50 is 30 nM. This IC50 is about 2.3-fold higher than that of the molecule before. On the same count and under the same terms, as for `O=C(NC1CC1)c1ccc(OCC(=O)N2CCc3nc4ccccn4c3C2c2ccc(OCCO)cc2F)c(Cl)n1` (stereo not shown) [Example 1.22.1, 6-chloro-N-cyclopropyl-5-(2-(1-(2-fluoro-4-(2-hydroxyethoxy)phenyl)-3,4-dihydroimidazo[1,2-a:5,4-c′]dipyridin-2(1H)-yl)-2-oxoethoxy)picolinamide], the figure is 80 nM; as for `O=C(COc1ccc(CN2CCOCC2)cc1Cl)N1CCc2nc3cc(C(F)(F)F)ccn3c2C1c1ncn2ccccc12` (stereo not shown) [Example 3.48.1, 2-(2-chloro-4-(morpholinomethyl)phenoxy)-1-(1-(imidazo[1,5-a]pyridin-1-yl)-7-(trifluoromethyl)-3,4-dihydroimidazo[1,2-a:5,4-c′]dipyridin-2(1H)-yl)ethan-1-one], 214 nM. Molecule `O=C(COc1ccc(CN2CCOCC2)cc1Cl)N1CCc2nc3cc(C(F)(F)F)ccn3c2C1c1ccc(OCC(F)(F)F)nc1` (stereo not shown) [Example 3.8.1, 2-(2-chloro-4-(morpholinomethyl)phenoxy)-1-(1-(6-(2,2,2-trifluoroethoxy)pyridin-3-yl)-7-(trifluoromethyl)-3,4-dihydroimidazo[1,2-a:5,4-c′]dipyridin-2(1H)-yl)ethan-1-one] returned an IC50 of 86 nM. Same read-out and setting: as for `COc1ccc(C2c3c(nc4ccccn34)CCN2C(=O)COc2ccc(C(=O)NC3CC3)nc2Cl)c(F)c1` (stereo not shown) [Example 1.3.3, 6-chloro-N-cyclopropyl-5-(2-(1-(2-fluoro-4-methoxyphenyl)-3,4-dihydroimidazo[1,2-a:5,4-c′]dipyridin-2(1H)-yl)-2-oxoethoxy)picolinamide], the figure is 19 nM.

Still in this assay, the particulars now being: Table 1; full length human TPH1, 40 μM L-tryptophan, 15° C., 60 minutes; mean if determined several times.
In the case of `O=C(COc1ccc(N2CCOCC2)cc1Cl)N1CCc2nc3cc(C(F)(F)F)ccn3c2[C@H]1c1ccc(Cl)cc1F` [Example 3.4.5, ((1R)-1-(4-chloro-2-fluorophenyl)-7-(trifluoromethyl)-3,10a-dihydroimidazo[1,2-a:5,4-c′]dipyridin-2(1H)-yl)-2-(2-chloro-4-morpholinophenoxy)ethan-1-one], the IC50 is 6 nM.
